One data set addresses T1, recombinant human PAPD5 (Homo sapiens, UniProt Q8NDF8).
T1 construct: PAPD5 (amino acids 186 to 518; XM_011523275); 10xHis (N); Flag (N); TEV cleavage site (N); host or cells: E. coli BL21(DE3), vector pET-24a(+)
Briefly: PAPD5 ATP depletion assay. The class given is biochemical. Particulars: truncated recombinant human PAPD5, ATP depletion. The procedure: Molecular cloning, expression, and purification of the recombinant human PAPD5 and PAPD7 proteins were performed at Xtal BioStructures (MA, USA). PAPD5 (amino acids 186 to 518; GenBank accession no. XM_011523275) and PAPD7 (amino acids 226 to 558; GenBank accession no. NM_006999.6) genes comprising of nucleotidyltransferase and PAP-associated domains were codon optimized, synthesized, and inserted in the expression vector pET-24a(+) for E. coli expression with 10×His-Flag-tobacco etch virus (TEV) tags at the N terminus. The pET-24a(+) constructs were transformed into E. coli-competent cells BL21(DE3). […] Expression of protein was induced for 16 h with 0.2 mM IPTG (isopropyl-β-D-thiogalactopyranoside) at 18°C. […] Roche). Cell suspension was sonicated 8 × 20 s at 27 to 30 W (power level, 3.5 to 4.0) with 40-s breaks between each pulse. Lysate was cleared by centrifugation in a 50-ml conical tube at 20,000 × g for 30 min (Fiberlite F13-14 × 50cy rotor in a Sorvall RC6 centrifuge). Supernatant was incubated with Ni-charged MagBeads (GenScript; catalog no. […] Bound proteins were washed with 50 ml binding buffer and eluted in elution buffer containing a gradient of imidazole ranging from 5 to 500 mM. Peak fractions were pooled and stored in 50% glycerol at -80°C. Reactions were carried out in duplicate in 96-well low-profile, skirted, white plates (catalog no. AB0800WL; […] The reaction mixtures were incubated at room temperature for 3 h, and ATP depletion was monitored by using Kinase-Glo luminescent kinase kit following the manufacturer's instructions (catalog no. V6712; Promega, WI, USA).

For the next data set, the system named is Influenza. Briefly: organism not typed. In kind it is cell-based. The following applies: MDBK, CPE.
Data set [1] can be described thus: Cytotoxicity (summary statement). In kind it is cell-based. Particulars: several cell lines from different tissue origins; 30 μM highest concentration tested.
The test system of another data set is HBV. Briefly: HBV replication intermediates and viral proteins in HepG2.2.15 cells (Northern, Western, particle gel, Southern). The class given is cell-based, hepatitis B virus. The following applies: HepG2.2.15, 6 days; ETV, GLS-4, cmpdA 1 μM; AB-452 70 nM. The procedure:
Total cellular RNA was extracted from HepG2.2.15 or HepAD38 cells treated with or without antiviral compounds using TRIzol reagent according to the manufacturer's directions (Thermo Fisher Scientific, Waltham, MA). Northern blotting was performed as described previously ([1]). Briefly, total RNA was separated in a 1.5% agarose gel and transferred onto an Amersham Hybond-XL membrane (product no. GERPN303S; GE Healthcare, IL, USA). Membranes were probed with an [α-^32P]UTP (PerkinElmer, CT, USA)-labeled minus strand-specific full-length HBV riboprobe (3.2 kb) transcribed from plasmid pSP65_HBV(+) DNA. Membranes were exposed to a phosphoimager screen, and the hybridization signals were quantified using Image Studio software (Li-Cor Biosciences, NE, USA).
Total intracellular viral core-associated DNA was extracted as described previously ([1]) and analyzed by Southern blotting hybridization with an [α-^32P]UTP-labeled full-length HBV riboprobe (3.2 kb) that specifically hybridized to minus strand of viral DNA. Membranes were exposed to a phosphoimager screen, and the hybridization signals were quantified using Image Studio software.
HepG2.2.15 or HepAD38 cells cultured in a 12-well plate were lysed with 200 μl Laemmli sample buffer (Bio-Rad, PA, USA) supplemented with 2.5% 2-mercaptoethanol (Sigma-Aldrich, MO, USA). […]

From article PMC8387043, “Host Poly(A) Polymerases PAPD5 and PAPD7 Provide Two Layers of Protection That Ensure the Integrity and Stability of Hepatitis B Virus RNA” (Journal of Virology, 2021) come the findings set out here.

pEC50, pIC50: −log10 of the molar value.

T1 sequence (Q8NDF8 106-438 limits assumed): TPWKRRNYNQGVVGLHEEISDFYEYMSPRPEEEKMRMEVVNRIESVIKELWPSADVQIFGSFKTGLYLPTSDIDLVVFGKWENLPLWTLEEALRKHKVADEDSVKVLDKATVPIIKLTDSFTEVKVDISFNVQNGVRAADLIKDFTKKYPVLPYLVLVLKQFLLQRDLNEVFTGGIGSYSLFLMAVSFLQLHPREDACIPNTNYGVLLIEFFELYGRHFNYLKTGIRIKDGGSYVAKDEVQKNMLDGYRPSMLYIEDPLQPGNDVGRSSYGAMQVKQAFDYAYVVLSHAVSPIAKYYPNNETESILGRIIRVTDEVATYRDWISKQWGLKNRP

On to `COCCCOc1cc2c(nc1OC)-c1cc(=O)c(C(=O)O)cn1[C@H](C(C)C)C2` [AB-452], for which the pIC50 at recombinant human PAPD5 is 7.03. In the data set with Influenza, this compound showed a negative logarithm of the EC50 (pEC50) of less than 4.52. In data set [1], this compound returned a CC50 of more than 30 µM. Moreover, the “Effect on HBV replication intermediates and viral proteins” value in the data set with HBV is “reducing intracellular pgRNA, sRNA, core protein, native capsids, encapsidated pgRNA, and replicating HBV DNA”.
